# Experimental data reported in patent publication US9902702B2, “Spirocycloheptanes as inhibitors of rock” (BRISTOL-MYERS SQUIBB COMPANY, priority 2014, dated 2018).
# Molecular target: ROCK2 (Homo sapiens, UniProt O75116)
# Experiment: ROCK assay: phosphorylation of FITC peptide substrate, LABCHIP 3000 mobility shift
# Assay type: biochemical
# Conditions: 5 μM ATP, 1.5 μM peptide substrate; read-out: ROCK2 Activity (ROCK IC50 range)
# Protocol: The effectiveness of compounds of the present invention as ROCK inhibitors can be determined in a 30 μL assay containing 20 mM HEPES, pH 7.5, 20 mM MgCl2, 0.015% Brij-35, 4 mM DTT, 5 μM ATP and 1.5 μM peptide substrate (FITC-AHA-AKRRRLSSLRA-OH). Compounds were dissolved in DMSO so that the final concentration of DMSO was <2%, and the reaction was initiated with Rho kinase variants. After incubation, the reaction was terminated by the addition of EDTA and the phosphorylated and non-phosphorylated peptides separated using a LABCHIP® 3000 Reader (Caliper Life Sciences). […] Compounds were tested in dose-response format, and the inhibition of kinase activity was calculated at each concentration of compound. The inhibition data were fit using a curve-fitting program to determine the IC50; i.e., the concentration of compound required to inhibit 50% of kinase activity.
# Representative Examples were tested in the ROCK assay described above and found having ROCK inhibitory activity.
# Chain of ROCK2 (O75116 whole entry, species assumed): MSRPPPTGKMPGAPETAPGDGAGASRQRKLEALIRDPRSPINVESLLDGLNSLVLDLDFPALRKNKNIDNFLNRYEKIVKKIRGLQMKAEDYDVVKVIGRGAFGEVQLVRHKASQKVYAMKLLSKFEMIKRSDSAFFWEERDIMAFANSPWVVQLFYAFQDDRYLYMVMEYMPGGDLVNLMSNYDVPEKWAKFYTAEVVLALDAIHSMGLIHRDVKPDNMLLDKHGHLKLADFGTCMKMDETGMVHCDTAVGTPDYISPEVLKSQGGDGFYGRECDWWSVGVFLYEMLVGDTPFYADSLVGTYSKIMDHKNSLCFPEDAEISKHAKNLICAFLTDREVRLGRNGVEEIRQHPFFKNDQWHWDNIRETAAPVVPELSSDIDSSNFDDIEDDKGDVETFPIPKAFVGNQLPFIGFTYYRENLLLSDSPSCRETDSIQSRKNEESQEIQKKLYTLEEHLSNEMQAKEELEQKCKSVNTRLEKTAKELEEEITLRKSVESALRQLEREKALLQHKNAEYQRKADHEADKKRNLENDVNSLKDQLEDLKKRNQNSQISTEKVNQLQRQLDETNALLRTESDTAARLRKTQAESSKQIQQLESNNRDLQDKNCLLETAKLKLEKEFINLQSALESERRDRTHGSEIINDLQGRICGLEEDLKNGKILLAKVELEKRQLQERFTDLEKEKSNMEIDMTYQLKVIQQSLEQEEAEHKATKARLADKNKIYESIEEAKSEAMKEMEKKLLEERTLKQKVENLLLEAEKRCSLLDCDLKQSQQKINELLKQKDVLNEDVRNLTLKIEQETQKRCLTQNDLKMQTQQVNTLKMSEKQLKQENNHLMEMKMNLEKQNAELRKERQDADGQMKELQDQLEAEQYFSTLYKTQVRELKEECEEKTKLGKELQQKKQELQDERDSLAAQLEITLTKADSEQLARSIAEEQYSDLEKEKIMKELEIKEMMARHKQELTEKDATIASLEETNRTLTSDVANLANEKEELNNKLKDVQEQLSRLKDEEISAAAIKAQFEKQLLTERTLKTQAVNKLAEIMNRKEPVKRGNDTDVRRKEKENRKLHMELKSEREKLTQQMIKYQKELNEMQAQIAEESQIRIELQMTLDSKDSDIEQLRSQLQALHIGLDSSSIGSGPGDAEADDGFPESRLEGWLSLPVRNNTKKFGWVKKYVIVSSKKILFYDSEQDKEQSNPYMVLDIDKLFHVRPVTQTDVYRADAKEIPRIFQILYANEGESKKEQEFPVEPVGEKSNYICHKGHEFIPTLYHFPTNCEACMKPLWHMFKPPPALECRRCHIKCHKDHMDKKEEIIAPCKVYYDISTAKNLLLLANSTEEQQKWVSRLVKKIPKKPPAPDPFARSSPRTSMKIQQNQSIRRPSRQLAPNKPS
row,IC50 [nM],SMILES
1,0.2 to 2,"CN1CCN(c2ccc3c(C(=O)NC4CC5(C4)CC(c4n[nH]c(=O)c6ccccc46)C5)cnn3c2)CC1 [Example 86, 6-(4-methylpiperazin-1-yl)-N-((aR)-6-(4-oxo-3,4-dihydrophthalazin-1-yl)spiro[3.3]heptan-2-yl)pyrazolo[1,5-a]pyridine-3-carboxamide]"
2,15.1 to 100,"[H][C@]1(c2n[nH]c(=O)c3ccccc32)C[C@]2(C[C@@H](NC(=O)c3ccc(N4CCCC4)cn3)C2)C1 (stereo partly drawn) [Example 369, N-((aR)-6-(4-oxo-3,4-dihydrophthalazin-1-yl)spiro[3.3]heptan-2-yl)-5-(pyrrolidin-1-yl)picolinamide]"
3,0.2 to 2,"[H][C@]1(c2n[nH]c(=O)c3ccccc32)C[C@]2(C[C@@H](NC(=O)c3cnn4cc(COCC=C)ccc34)C2)C1 (stereo partly drawn) [Example 212, 6-((allyloxy)methyl)-N-((aR)-6-(4-oxo-3,4-dihydrophthalazin-1-yl)spiro[3.3]heptan-2-yl)pyrazolo[1,5-a]pyridine-3-carboxamide]"
4,5.1 to 15,"[H][C@]1(c2n[nH]c(=O)c3ccccc32)C[C@]2(C[C@@H](NC(=O)c3cnc4c(F)cc(F)cn34)C2)C1 (stereo partly drawn) [Example 411, 6,8-difluoro-N-((aR)-6-(4-oxo-3,4-dihydrophthalazin-1-yl)spiro[3.3]heptan-2-yl)imidazo[1,2-a]pyridine-3-carboxamide]"
5,100 to 2100,"[H][C@]1(c2n[nH]c(=O)c3ccccc32)C[C@]2(C[C@@H](NC(=O)c3ccc(C(F)(F)F)nc3)C2)C1 (stereo partly drawn) [Example 342, N-((aR)-6-(4-oxo-3,4-dihydrophthalazin-1-yl)spiro[3.3]heptan-2-yl)-6-(trifluoromethyl) nicotinamide]"
6,0.2 to 2,"N#Cc1c(OCc2ccccc2)ccc2c(C(=O)NC3CC4(C3)CC(c3n[nH]c(=O)c5ccccc35)C4)cnn12 (stereo not drawn) [Example 127, 6-(benzyloxy)-7-cyano-N-((αR)-6-(4-oxo-3,4-dihydrophthalazin-1-yl)spiro[3.3]heptan-2-yl)pyrazolo[1,5-α]pyridine-3-carboxamide]"
7,15.1 to 100,"[H][C@]1(c2n[nH]c(=O)c3ccccc32)C[C@]2(C[C@@H](NC(=O)c3c(C)nc4ccccn34)C2)C1 (stereo partly drawn) [Example 299, 2-methyl-N-((aR)-6-(4-oxo-3,4-dihydrophthalazin-1-yl)spiro[3.3]heptan-2-yl)imidazo[1,2-a]pyridine-3-carboxamide]"
8,2.01 to 5,"O=C(NC1CC2(C1)CC(c1n[nH]c(=O)c3ccccc13)C2)c1cnn2cc(-c3c[nH]nc3C(F)(F)F)ccc12 (stereo not drawn) [Example 172, N-((αR)-6-(4-oxo-3,4-dihydrophthalazin-1-yl)spiro[3.3]heptan-2-yl)-6-(3-(trifluoromethyl)-1H-pyrazol-4-yl)pyrazolo[1,5-α]pyridine-3-carboxamide]"
9,0.2 to 2,"O=C(NC1CC2(C1)CC(c1n[nH]c(=O)c3ccccc13)C2)c1cnn2cc(CCC(F)(F)F)ccc12 [Example 206, N-((aR)-6-(4-oxo-3,4-dihydrophthalazin-1-yl)spiro[3.3]heptan-2-yl)-6-(3,3,3-trifluoropropyl)pyrazolo[1,5-a]pyridine-3-carboxamide]"
10,15.1 to 100,"[H][C@]1(c2n[nH]c(=O)c3ccccc32)C[C@]2(C[C@@H](NC(=O)c3nc4ccc(Cl)cc4[nH]3)C2)C1 (stereo partly drawn) [Example 305, 6-chloro-N-((aR)-6-(4-oxo-3,4-dihydrophthalazin-1-yl)spiro[3.3]heptan-2-yl)-1H-benzo[d] imidazole-2-carboxamide]"
11,15.1 to 100,"O=C(Nc1ccc(-c2cnn(C3CC3)c2)cc1)NC1CC2(C1)CC(c1n[nH]c(=O)c3ccccc13)C2 [Example 230, 1-(4-(1-cyclopropyl-1H-pyrazol-4-yl)phenyl)-3-((aR)-6-(4-oxo-3,4-dihydrophthalazin-1-yl)spiro[3.3]heptan-2-yl)urea]"
12,5.1 to 15,"[H][C@]1(c2n[nH]c(=O)c3ccccc32)C[C@]2(C[C@@H](NC(=O)c3cnc4c(C#N)cccn34)C2)C1 (stereo partly drawn) [Example 380, 8-cyano-N-((aR)-6-(4-oxo-3,4-dihydrophthalazin-1-yl)spiro[3.3]heptan-2-yl)imidazo[1,2-a]pyridine-3-carboxamide]"
13,0.2 to 2,"O=C(NC1CC2(C1)CC(c1n[nH]c(=O)c3ccccc13)C2)c1cnn2cc(N3CCC(F)C3)ccc12 [Example 89, 6-((S)-3-fluoropyrrolidin-1-yl)-N-((aR)-6-(4-oxo-3,4-dihydrophthalazin-1-yl)spiro[3.3]heptan-2-yl)pyrazolo[1,5-a]pyridine-3-carboxamide]"
14,0.2 to 2,"[H][C@]1(c2n[nH]c(=O)c3ccccc32)C[C@]2(C[C@@H](NC(=O)c3ccc(-c4cn[nH]c4)c(OC)c3)C2)C1 (stereo partly drawn) [Example 416, 3-methoxy-N-((aR)-6-(4-oxo-3,4-dihydrophthalazin-1-yl)spiro[3.3]heptan-2-yl)-4-(1H-pyrazol-4-yl)benzamide]"
15,5.1 to 15,"[H][C@]1(c2n[nH]c(=O)c3ccccc32)C[C@]2(C[C@@H](NC(=O)c3cc4ccc(Cl)cc4s3)C2)C1 (stereo partly drawn) [Example 313, 6-chloro-N-((aR)-6-(4-oxo-3,4-dihydrophthalazin-1-yl)spiro[3.3]heptan-2-yl)benzo[b] thiophene-2-carboxamide]"
16,2.01 to 5,"O=C(NC1CC2(C1)CC(c1n[nH]c(=O)c3ccccc13)C2)c1cnn(Cc2ccccc2)c1 [Example 109, 1-benzyl-N-((aR)-6-(4-oxo-3,4-dihydrophthalazin-1-yl)spiro[3.3]heptan-2-yl)-1H-pyrazole-4-carboxamide]"
17,2.01 to 5,"O=C(NC1CC2(C1)CC(c1n[nH]c(=O)c3ccccc13)C2)c1cnn2cc(-n3cncn3)ccc12 (stereo not drawn) [Example 178, N-((αR)-6-(4-oxo-3,4-dihydrophthalazin-1-yl)spiro[3.3]heptan-2-yl)-6-(1H-1,2,4-triazol-1-yl)pyrazolo[1,5-α]pyridine-3-carboxamide]"

# Further lines, the compound ahead of its results:
row,SMILES,IC50 [nM]
1,"[H][C@]1(c2n[nH]c(=O)c3ccccc32)C[C@]2(C[C@@H](NC(=O)c3[nH]c4c(OC)cccc4c3C)C2)C1 (stereo partly drawn) [Example 372, 7-methoxy-3-methyl-N-((aR)-6-(4-oxo-3,4-dihydrophthalazin-1-yl)spiro[3.3]heptan-2-yl)-1H-indole-2-carboxamide]",15.1 to 100
2,"Cc1nc(NC2CC2)sc1C(=O)NC1CC2(C1)CC(c1n[nH]c(=O)c3ccccc13)C2 [Example 42, 2-(cyclopropylamino)-4-methyl-N-[(aR)-6-(4-oxo-3,4-dihydrophthalazin-1-yl)spiro[3.3]heptan-2-yl]-1,3-thiazole-5-carboxamide]",15.1 to 100
3,"O=C(N[C@H]1CC2(C1)C[C@H](c1n[nH]c(=O)c3ccccc31)C2)c1cnn2cc(OC[C@@H](O)C(F)(F)F)ccc12 (stereo partly drawn) [Example 119, N-((aR)-6-(4-oxo-3,4-dihydrophthalazin-1-yl)spiro[3.3]heptan-2-yl)-6-(3,3,3-trifluoro-2-hydroxypropoxy)pyrazolo[1,5-a]pyridine-3-carboxamide]",0.2 to 2
4,"O=C(NC1CC2(C1)CC(c1n[nH]c(=O)c3ccccc13)C2)c1ccn(CC(F)(F)F)n1 (centres unmarked) [Example 7, N-[6-(4-oxo-3,4-dihydrophthalazin-1-yl)spiro[3.3]heptan-2-yl]-1-(2,2,2-trifluoroethyl)-1H-pyrazole-3-carboxamide]",5.1 to 15
5,"[H][C@]1(c2n[nH]c(=O)c3ccccc32)C[C@]2(C[C@@H](NC(=O)c3cnc4cc(N(C)CCO)ccn34)C2)C1 (stereo partly drawn) [Example 396, 7-((2-hydroxy-ethyl)(methyl)amino)-N-((aR)-6-(4-oxo-3,4-dihydrophthalazin-1-yl)spiro[3.3]heptan-2-yl)imidazo[1,2-a]pyridine-3-carboxamide]",2.01 to 5
6,"[H][C@]1(c2n[nH]c(=O)c3ccccc32)C[C@]2(C[C@@H](N(C)C(=O)c3nn(C)c4ccccc34)C2)C1 (stereo partly drawn) [Example 266, N,1-dimethyl-N-((aR)-6-(4-oxo-3,4-dihydrophthalazin-1-yl)spiro[3.3]heptan-2-yl)-1H-indazole-3-carboxamide]",100 to 2100
7,"Cc1sc(NC2CC(F)(F)C2)nc1C(=O)NC1CC2(C1)CC(c1n[nH]c(=O)c3ccccc13)C2 [Example 57, 2-((3,3-difluorocyclobutyl)amino)-5-methyl-N-((aR)-6-(4-oxo-3,4-dihydrophthalazin-1-yl)spiro[3.3]heptan-2-yl)thiazole-4-carboxamide]",5.1 to 15
8,"[H][C@]1(c2n[nH]c(=O)c3ccccc32)C[C@]2(C[C@@H](NC(=O)c3cnc4cc(NCC(C)(C)O)ccn34)C2)C1 (stereo partly drawn) [Example 409, 7-((2-hydroxy-2-methylpropyl)amino)-N-((aR)-6-(4-oxo-3,4-dihydrophthalazin-1-yl)spiro[3.3]heptan-2-yl)imidazo[1,2-a]pyridine-3-carboxamide,]",2.01 to 5
9,CC1(C)CN(C(=O)NC2CC3(C2)CC(c2n[nH]c(=O)c4ccccc24)C3)c2ccccc21 (centres unmarked) [Example 255],5.1 to 15
10,"CC(C)(O)Cn1nc(C(=O)NC2CC3(C2)CC(c2n[nH]c(=O)c4ccccc24)C3)c2ccccc21 (centres unmarked) [Example 11, 1-(2-hydroxy-2-methylpropyl)-N-[6-(4-oxo-3,4-dihydrophthalazin-1-yl)spiro[3.3]heptan-2-yl]-1H-indazole-3-carboxamide]",15.1 to 100
11,"[H][C@]1(c2n[nH]c(=O)c3ccccc32)C[C@]2(C[C@@H](NC(=O)c3cnc4cc(OCCC(F)(F)F)ccn34)C2)C1 (stereo partly drawn) [Example 432, N-((aR)-6-(4-oxo-3,4-dihydrophthalazin-1-yl)spiro[3.3]heptan-2-yl)-7-(3,3,3-trifluoro-propoxy)imidazo[1,2-a]pyridine-3-carboxamide]",2.01 to 5
12,"[H][C@]1(c2n[nH]c(=O)c3ccccc32)C[C@]2(C[C@@H](NC(=O)c3ccc(OC(C)C)c(C#N)c3)C2)C1 (stereo partly drawn) [Example 353, 3-cyano-4-isopropoxy-N-((aR)-6-(4-oxo-3,4-dihydrophthalazin-1-yl)spiro[3.3]heptan-2-yl)benzamide]",5.1 to 15
